{"source": "ChEMBL document CHEMBL1201862", "about": "“PubChem BioAssay data set” (2004)", "experiment_in_all_cases": "NCI anticancer screen, dose series, 48 h", "key": {"786-0": {"tested_on": "786-0"}, "A498": {"tested_on": "A498"}, "A549": {"tested_on": "A549"}, "ACHN": {"tested_on": "ACHN"}, "CAKI-1": {"tested_on": "CAKI-1"}, "CCRF-CEM": {"tested_on": "CCRF-CEM"}, "COLO 205": {"tested_on": "COLO 205"}, "DLD-1": {"tested_on": "DLD-1"}, "DMS-114": {"tested_on": "DMS-114"}, "DMS-273": {"tested_on": "DMS-273"}, "EKVX": {"tested_on": "EKVX"}, "HCC 2998": {"tested_on": "HCC 2998"}, "HCT-116": {"tested_on": "HCT-116"}, "HCT-15": {"tested_on": "HCT-15"}, "HL-60": {"tested_on": "HL-60"}, "HOP-18": {"tested_on": "HOP-18"}, "HT-29": {"tested_on": "HT-29"}, "K562": {"tested_on": "K562"}, "KM-20L2": {"tested_on": "KM-20L2"}, "KM12": {"tested_on": "KM12"}, "LOX IMVI": {"tested_on": "LOX IMVI"}, "LXFL 529": {"tested_on": "LXFL 529"}, "M14": {"tested_on": "M14"}, "MOLT-4": {"tested_on": "MOLT-4"}, "Malme-3M": {"tested_on": "Malme-3M"}, "NCI-H226": {"tested_on": "NCI-H226"}, "NCI-H23": {"tested_on": "NCI-H23"}, "NCI-H460": {"tested_on": "NCI-H460"}, "OVCAR-3": {"tested_on": "OVCAR-3"}, "OVCAR-4": {"tested_on": "OVCAR-4"}, "OVCAR-5": {"tested_on": "OVCAR-5"}, "OVCAR-8": {"tested_on": "OVCAR-8"}, "RPMI-8226": {"tested_on": "RPMI-8226"}, "RXF 393": {"tested_on": "RXF 393"}, "RXF 631": {"tested_on": "RXF 631"}, "SF-268": {"tested_on": "SF-268"}, "SF-295": {"tested_on": "SF-295"}, "SF-539": {"tested_on": "SF-539"}, "SK-MEL-28": {"tested_on": "SK-MEL-28"}, "SK-MEL-2": {"tested_on": "SK-MEL-2"}, "SK-MEL-5": {"tested_on": "SK-MEL-5"}, "SK-OV-3": {"tested_on": "SK-OV-3"}, "SN12C": {"tested_on": "SN12C"}, "SNB-19": {"tested_on": "SNB-19"}, "SNB-75": {"tested_on": "SNB-75"}, "SNB-78": {"tested_on": "SNB-78"}, "SW-620": {"tested_on": "SW-620"}, "TK-10": {"tested_on": "TK-10"}, "U-251": {"tested_on": "U-251"}, "UACC-257": {"tested_on": "UACC-257"}, "UO-31": {"tested_on": "UO-31"}, "XF498": {"tested_on": "XF498"}}, "note": "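Dose response: 5 concentrations. Exposure: 48 h. Format: 96-well plates. Endpoint: linear interpolation; highest concentration if not reached. GI50: concentration for 50% inhibition of growth.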 The source made the active and inactive calls. No stated cut-off is given here; in the data, active = GI50 up to about 1.1 µM and inactive = higher."}
{"smiles": "Cc1cccc(C)c1NC(=O)CCCC(=O)C1CCC/C1=N\\NC(=O)C(=O)NN", "note": "(configuration not stated)", "values": [{"measurement": "GI50", "setting": "786-0", "value": "> 100 µM (inactive)"}, {"measurement": "GI50", "setting": "A498", "value": "> 100 µM (inactive)"}, {"measurement": "GI50", "setting": "A549", "value": "> 100 µM (inactive)"}, {"measurement": "GI50", "setting": "ACHN", "value": "> 100 µM (inactive)"}, {"measurement": "GI50", "setting": "CAKI-1", "value": "> 100 µM (inactive)"}, {"measurement": "GI50", "setting": "CCRF-CEM", "value": "> 100 µM (inactive)"}, {"measurement": "GI50", "setting": "COLO 205", "value": "> 100 µM (inactive)"}, {"measurement": "GI50", "setting": "DLD-1", "value": "> 100 µM (inactive)"}, {"measurement": "GI50", "setting": "DMS-114", "value": "> 100 µM (inactive)"}, {"measurement": "GI50", "setting": "DMS-273", "value": "> 100 µM (inactive)"}, {"measurement": "GI50", "setting": "EKVX", "value": "> 100 µM (inactive)"}, {"measurement": "GI50", "setting": "HCC 2998", "value": "> 100 µM (inactive)"}, {"measurement": "GI50", "setting": "HCT-116", "value": "> 100 µM (inactive)"}, {"measurement": "GI50", "setting": "HCT-15", "value": "> 100", "unit": "µM"}, {"measurement": "GI50", "setting": "HL-60", "value": "> 100 µM (inactive)"}, {"measurement": "GI50", "setting": "HOP-18", "value": "> 100 µM (inactive)"}, {"measurement": "GI50", "setting": "HT-29", "value": "> 100 µM (inactive)"}, {"measurement": "GI50", "setting": "K562", "value": "> 100 µM (inactive)"}, {"measurement": "GI50", "setting": "KM-20L2", "value": "> 100 µM (inactive)"}, {"measurement": "GI50", "setting": "KM12", "value": "> 100 µM (inactive)"}, {"measurement": "GI50", "setting": "LOX IMVI", "value": "> 100 µM (inactive)"}, {"measurement": "GI50", "setting": "LXFL 529", "value": "> 100 µM (inactive)"}, {"measurement": "GI50", "setting": "M14", "value": "> 100 µM (inactive)"}, {"measurement": "GI50", "setting": "MOLT-4", "value": "> 100 µM (inactive)"}, {"measurement": "GI50", "setting": "Malme-3M", "value": "> 100 µM (inactive)"}, {"measurement": "GI50", "setting": "NCI-H226", "value": "> 100 µM (inactive)"}, {"measurement": "GI50", "setting": "NCI-H23", "value": "> 100 µM (inactive)"}, {"measurement": "GI50", "setting": "NCI-H460", "value": "> 100 µM (inactive)"}, {"measurement": "GI50", "setting": "OVCAR-3", "value": "> 100 µM (inactive)"}, {"measurement": "GI50", "setting": "OVCAR-4", "value": "> 100 µM (inactive)"}, {"measurement": "GI50", "setting": "OVCAR-5", "value": "> 100 µM (inactive)"}, {"measurement": "GI50", "setting": "OVCAR-8", "value": "> 100 µM (inactive)"}, {"measurement": "GI50", "setting": "RPMI-8226", "value": "> 100 µM (inactive)"}, {"measurement": "GI50", "setting": "RXF 393", "value": "24.5 µM (inactive)"}, {"measurement": "GI50", "setting": "RXF 631", "value": "> 100 µM (inactive)"}, {"measurement": "GI50", "setting": "SF-268", "value": "> 100 µM (inactive)"}, {"measurement": "GI50", "setting": "SF-295", "value": "> 100 µM (inactive)"}, {"measurement": "GI50", "setting": "SF-539", "value": "> 100 µM (inactive)"}, {"measurement": "GI50", "setting": "SK-MEL-28", "value": "> 100 µM (inactive)"}, {"measurement": "GI50", "setting": "SK-MEL-2", "value": "> 100 µM (inactive)"}, {"measurement": "GI50", "setting": "SK-MEL-5", "value": "> 100 µM (inactive)"}, {"measurement": "GI50", "setting": "SK-OV-3", "value": "> 100 µM (inactive)"}, {"measurement": "GI50", "setting": "SN12C", "value": "> 100 µM (inactive)"}, {"measurement": "GI50", "setting": "SNB-19", "value": "> 100 µM (inactive)"}, {"measurement": "GI50", "setting": "SNB-75", "value": "> 100 µM (inactive)"}, {"measurement": "GI50", "setting": "SNB-78", "value": "> 100 µM (inactive)"}, {"measurement": "GI50", "setting": "SW-620", "value": "> 100 µM (inactive)"}, {"measurement": "GI50", "setting": "TK-10", "value": "> 100 µM (inactive)"}, {"measurement": "GI50", "setting": "U-251", "value": "> 100 µM (inactive)"}, {"measurement": "GI50", "setting": "UACC-257", "value": "> 100 µM (inactive)"}, {"measurement": "GI50", "setting": "UO-31", "value": "> 100 µM (inactive)"}, {"measurement": "GI50", "setting": "XF498", "value": "> 100 µM (inactive)"}]}
